Measured values reported in PubChem BioAssay (NCI).
Several values for one entry are separate records, joined by “and”; a condition that tells them apart may be missing. Equal values may be shown once.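 A five-concentration, 48-hour dose response in 96-well plates underlies each endpoint, interpolated linearly between surrounding concentrations. At the GI50, growth is halved. The concentration for full growth arrest is given as TGI.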

Columns and labels:
Experiment in all cases: growth of human tumour cells (NCI), 48 h
[1] = test system: NCI-H23 lung
[2] = test system: LOX IMVI melanoma
[3] = test system: SR leukemia
[4] = test system: EKVX NSCLC
[5] = test system: SNB-75 CNS
[6] = test system: SK-OV-3 ovarian
[7] = test system: CCRF-CEM leukemia
[8] = test system: UO-31 renal
[9] = test system: SNB-19 CNS
[10] = test system: MALME-3M melanoma

Row | SMILES | TGI [1] | TGI [2] | TGI [3] | TGI [4] | TGI [5] | TGI [6] | TGI [7] | TGI [8] | TGI [9] | GI50 [1] | GI50 [10] | TGI [10] | GI50 [2] | GI50 [3] | GI50 [4] | GI50 [5] | GI50 [6] | GI50 [7] | GI50 [8] | GI50 [9]
1 | O=C(N/C=C/C=C/Sc1ccccc1)OCc1ccccc1 | 48.9 µM | 32 µM | > 100 µM | 53.6 µM | 42.4 µM | 64.6 µM | > 100 µM | 42 µM | > 100 µM | – | – | – | – | – | – | – | – | – | – | –
2 | O=C(c1cccs1)c1nc2cc(Cl)ccc2[n+]([O-])c1C(F)(F)F | > 100 µM | > 100 µM | > 100 µM | > 100 µM | > 100 µM | > 100 µM | > 100 µM | > 100 µM | > 100 µM | > 100 µM | 99 µM | > 100 µM | > 100 µM | 35.4 µM | 51.8 µM | 57.3 µM | > 100 µM | > 100 µM | > 100 µM | > 100 µM
3 | COc1ccc(/C=C/C(=O)c2ccc(Nc3nc(Nc4ccc(F)cc4)nc(Nc4ccc(Cl)cc4)n3)cc2)cc1 | > 100 µM | > 100 µM | 38.2 µM | > 100 µM | 45.8 µM | > 100 µM | > 100 µM | > 100 µM | > 100 µM | > 100 µM | > 100 µM | > 100 µM | > 100 µM | 4.68 µM | > 100 µM | 16.2 µM | > 100 µM | 37.4 µM | 56.9 µM | > 100 µM
4 | CCC(C)(C)[C@H](NC(=O)[C@H]1CCCCN1C)C(=O)N(C)[C@H](C[C@@H](OC(C)=O)c1nc(C(=O)N[C@@H](Cc2ccccc2)C[C@H](C)C(=O)O)cs1)C(C)C | > 16.7 µM | > 16.7 µM | > 16.7 µM | > 16.7 µM | > 16.7 µM | > 16.7 µM | > 16.7 µM | > 16.7 µM | > 16.7 µM | < 0.00167 µM | < 0.00167 µM | > 16.7 µM | < 0.00167 µM | < 0.00167 µM | < 0.00167 µM | < 0.00167 µM | < 0.00167 µM | < 0.00167 µM | 0.00873 µM | < 0.00167 µM
5 | Cn1c(NCC(CN2CCCC2)OC(=O)c2ccccc2)cc(=O)n(C)c1=O (stereo unspecified) | > 100 µM | > 100 µM | > 100 µM | > 100 µM | > 100 µM | > 100 µM | 4.06 µM | > 100 µM | > 100 µM | > 100 µM | 8.69 µM | 40.8 µM | > 100 µM | > 100 µM | > 100 µM | > 100 µM | > 100 µM | 0.0757 µM | > 100 µM | > 100 µM
6 | O=c1nc(N2CCCC2)nc(N2CCCC2)s1 | > 100 µM | > 100 µM | > 100 µM | > 100 µM | > 100 µM | > 100 µM | > 100 µM | > 100 µM | > 100 µM | – | – | > 100 µM | – | – | – | – | – | – | – | –
7 | COc1ccc2[nH]c3c4c(cc(-c5ccccc5)c3c2c1)C(=O)N(c1ccccc1)C4=O | 98.6 µM | > 92 µM | 19.9 µM | > 100 µM | 37.2 µM | > 93.1 µM | 15.1 µM | > 72 µM | > 81.8 µM | – | – | 65 µM | – | – | – | – | – | – | – | –
8 | C/C(=N\O)c1cccc(Nc2cc(-c3ccccc3)nc3c(O)cccc23)c1 | 20.2 µM | 19.7 µM | – | 56.7 µM | 28.4 µM | 25 µM | > 26.5 µM | 30.4 µM | 9.42 µM | 4.2 µM | 5.67 µM | 25.4 µM | 3.12 µM | 0.415 µM | 10.3 µM | 3.21 µM | 2.62 µM | 2.13 µM | 11.2 µM | 1.13 µM
9 | O=C(/C=C/c1cccc(S(=O)(=O)Nc2ccccc2)c1)NO | 7.47 µM and 2.69 µM | 1.62 µM and 10.2 µM | 22.8 µM | > 100 µM | 58.1 µM and > 54 µM | 6.64 µM and > 29.4 µM | 58.2 µM and > 100 µM | 5.91 µM and 29.5 µM | 19.5 µM and 41.5 µM | 0.707 µM and 0.112 µM | 0.251 µM and 0.0447 µM | 13.8 µM and 3.12 µM | 0.259 µM and 0.293 µM | – | 1.13 µM and 0.409 µM | – | 0.457 µM and 0.486 µM | – | 0.448 µM and 0.134 µM | 0.841 µM and 0.835 µM
10 | C=C(CN1CCN(c2ccccc2C(F)(F)F)CC1)c1ccc(C(=O)Nc2ccccc2N)cc1 | > 100 µM | 42.2 µM | 5.95 µM | > 100 µM | 20.1 µM | > 100 µM | 0.546 µM | > 60.3 µM | > 100 µM | 5.93 µM | 4.17 µM | > 64.1 µM | 5.86 µM | 2.36 µM | 6.7 µM | 2.82 µM | 11 µM | 0.0728 µM | 1 µM | 24.4 µM
11 | CN(C)CC1CCCCCCCCCCCCC(CN(C)C)C1=O (stereo unspecified) | 32 µM | 21.3 µM | 14 µM | 37.3 µM | 24.6 µM | 32.3 µM | – | 26.8 µM | 31.6 µM | – | – | 29.4 µM | – | – | – | – | – | – | – | –
12 | NCCCNc1nc2ccc(Cl)cc2c2c(=O)c3cc(F)ccc3sc12 | 21.2 µM | 2.95 µM | 5.37 µM | 21.2 µM | 19.1 µM | – | 6.65 µM | 16.1 µM | 25.4 µM | 5.61 µM | 6.91 µM | 23.2 µM | 1.57 µM | 2.1 µM | 6 µM | 4.15 µM | – | 2.35 µM | 3.35 µM | 9.43 µM
13 | CC(=O)N(CCN1C(=O)c2ccccc2C1=O)CCN1C(=O)c2ccccc2C1=O | > 100 µM | > 100 µM | > 100 µM | > 100 µM | > 100 µM | > 100 µM | > 100 µM | > 100 µM | > 100 µM | – | – | – | – | – | – | – | – | – | – | –
14 | CC(=O)Oc1c(Br)ccc2cc(C(Br)Br)c(C(=O)c3ccccc3)nc12 | 37.5 µM | 50.9 µM | 74.2 µM | 39.4 µM | 46 µM | – | – | 35.9 µM | 39.1 µM | – | – | 51 µM | – | – | – | – | – | – | – | –
15 | O=[N+]([O-])c1ccc(/C(Cl)=C/c2ccc(/C=C(\Cl)c3ccc([N+](=O)[O-])cc3[N+](=O)[O-])cc2)c([N+](=O)[O-])c1 | > 100 µM | > 100 µM | > 100 µM | > 100 µM | > 100 µM | > 100 µM | – | > 100 µM | – | – | – | > 100 µM | – | – | – | – | – | – | – | –
16 | O=C(O)c1ccc(Oc2nc3ccccc3s2)cc1 | > 100 µM | > 100 µM | > 100 µM | > 100 µM | – | > 100 µM | > 100 µM | > 100 µM | > 100 µM | – | – | > 100 µM | – | – | – | – | – | – | – | –
